Test: gradient 5% acetonitrile 3 min, to 50% in 2 min, to 85% in 15 min, held 3 min, 100 µL/min
Settings: column: Zorbax Extend-C18 2.1 x 50 mm; eluents: water / acetonitrile, 0.1% formic acid
Procedure, shortened: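 Using water and acetonitrile that each contained 0.1% formic acid, mixtures of ~100 pure standards were separated at 100 μL/min on a Zorbax Extend-C18 column (2.1 × 50 mm, 1.8 μm). The HPLC fed a quadrupole time-of-flight mass spectrometer working in positive and negative ionization mode, with dead and dwell volumes of 40 μL and 900 μL. Data were acquired over 3 months. Retention time was read from computationally picked adduct peaks after manual inspection of each.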

Row | SMILES | RP-LC retention time
1 | Cn1nccc1C(=O)NCc1ccc(-c2nc(-c3cccs3)no2)s1 | 858 s
2 | COCc1ccc(C(=O)Nc2ccnc3ccc(Cl)cc23)o1 | 616 s
3 | O=c1c2oc3ccccc3c2ncn1Cc1nc(-c2ccc(F)c(Cl)c2)no1 | 1050 s
4 | Cc1ccc(NC(=O)Cn2cc3c(n2)CCC(C)C3)cc1C (stereo not given) | 969 s
5 | Cc1cc(C)c(S(=O)(=O)N2CCN(Cc3cccc(F)c3)C3(CCOCC3)C2)cc1C | 974 s
6 | Cc1ccc(NC(=O)C2CCN(C(=O)C3Sc4ccccc4NC3=O)CC2)cc1F (stereo not given) | 804 s
7 | COc1ccc(C(=O)N2CCC3(C2)C(=O)N(C)c2ccc(OC)cc23)c(OC)c1 (stereo not given) | 760 s
8 | c1ccc(-c2nc3cnc(N4CCN(c5ccccc5)CC4)nc3o2)cc1 | 1340 s
9 | COc1cccc(NC(=O)C2CC(=O)N(c3ccc4c(c3)CCN4C(C)=O)C2)c1 (stereo not given) | 693 s
10 | O=C(NCc1ccccc1)c1csc(Nc2ccncn2)n1 | 687 s
11 | Cc1c(Cl)cccc1NC(=O)c1ccc(-n2ccnc2)nn1 | 652 s
12 | O=C(CCCN1C(=O)CSc2ncccc21)N1CCN(c2ccccn2)CC1 | 559 s
13 | C[C@H]1CN(C(=O)CSc2ccccc2)C[C@@H]1c1nc(-c2cccnc2)no1 | 823 s
14 | CCC(CC)NC(=O)C1Cn2cccc2C(=O)N1 (stereo not given) | 629 s
15 | COc1ccccc1OCC1c2ccsc2CCN1C(=O)CN(CC1CC1)C(=O)NC(C)C (stereo not given) | 919 s
16 | CC(C)N1CCN(Cc2nc(Cn3ccn4nc(-c5ccccc5)cc4c3=O)no2)CC1 | 647 s
17 | Cc1cccc(NC(=O)N2CCC(CCN)CC2)c1 | 586 s
18 | Cc1cc(N2CCN(C)CC2)nc2ccc(NC(=O)NCCc3ccccc3)cc12 | 614 s
19 | CCOC(=O)Cc1ccc(NC(=O)NC2CCN(c3ccc(F)c(C)c3)C2=O)cc1 (stereo not given) | 853 s
20 | O=C(Cc1ccccc1Cl)N1CCN(Cc2noc3ccccc23)CC1 | 739 s
21 | O=C(CCCS(=O)(=O)c1ccc(Cl)cc1)Nc1ccc([N+](=O)[O-])cc1 | 695 s
22 | Cc1nc(N2CCN(c3ccccn3)CC2)nc2c1C(=O)CC(c1ccc(F)cc1)C2 (stereo not given) | 755 s
23 | CC(=O)N1CCN(c2nc3c(s2)CC(C(=O)Nc2ccccc2)CC3)CC1 (stereo not given) | 541 s

Row | SMILES | RP-LC retention time
24 | CCOC(=O)c1noc2nc(C)nc(Nc3cccc(C)c3)c12 | 1170 s
25 | CCOCCCNC(=O)C1CCCN(S(=O)(=O)c2ccc3c(ccn3CC)c2)C1 (stereo not given) | 842 s
26 | O=C(Nc1ccccc1C(F)(F)F)C1CCCN(c2ccc(=O)n(-c3cccc(Cl)c3)n2)C1 (stereo not given) | 971 s
27 | CC(=O)c1sc(NC(=O)c2ccn(C)n2)nc1C | 630 s
28 | CC(CCc1ccccc1)NC(=O)CCC(=O)N1CCc2c(c(C(=O)N3CCOCC3)nn2C)C1 (stereo not given) | 679 s
29 | CCc1ccc(-c2nn(C)c(=O)c3c2CCCC3)cc1S(=O)(=O)N1CCC(C(N)=O)CC1 | 736 s
30 | COc1cccc(-c2nc(C3CCN(S(=O)(=O)c4ccc(F)c(C)c4)CC3)no2)c1 | 1150 s
31 | CCNC(=O)c1csc(N2CCCC(C)C2)n1 (stereo not given) | 928 s
32 | CCOc1cc(=O)n2c(c1C(=O)NCC1CCCCC1)CCCCC2 | 772 s
33 | COc1ccc(OC)c(S(=O)(=O)N2CCC(n3cnnc3C)CC2)c1 | 652 s
34 | Cc1nc(-c2cn(C(C)C)c3ncccc23)sc1C(=O)N1CCN(CC(C)C)CC1 | 661 s
35 | O=S(=O)(c1cccc(Cl)c1)N1CCc2nc(-c3ccc(F)cc3)ncc2C1 | 1180 s
36 | O=C(NCc1ccccc1)c1cc(-c2ccc(F)cc2)ns1 | 1040 s
37 | Cc1nn(CC(=O)NCC(C)C)c(=O)c2nc(-c3ccccc3)sc12 | 830 s
38 | CCOC(=O)c1c(C)oc2nc(C)nc(NCc3ccc4c(c3)OCO4)c12 | 1100 s
39 | COCCN1C(=O)c2ccccc2C(C(=O)NCC2COc3ccccc3O2)C1c1ccc(F)cc1 (stereo not given) | 954 s
40 | COc1ccc(C(=O)N2CC3CN(S(=O)(=O)c4ccc(OC)cc4)CC(C2)O3)cc1 | 769 s
41 | O=C(NC1CC1)C1CCN(c2nc(-c3ccc(Cl)cc3)no2)CC1 | 859 s
42 | CSc1ccc(NC(=O)N2C[C@@H]3C[C@H]2C[C@@H]3NS(=O)(=O)c2ccccc2)cc1 | 856 s
43 | CC(=O)N1CCc2ccccc2C1C(=O)NCc1ccc(C(F)(F)F)cc1 (stereo not given) | 838 s
44 | COc1cccc(OCC2c3ccsc3CCN2C(=O)CN(CC2CCCO2)C(=O)C(C)C)c1 (stereo not given) | 906 s
45 | Cn1c(C(=O)NCCc2ccccc2)cc2sc(Cl)cc21 | 1050 s
46 | O=C(Cc1cccs1)N1CCC2(CC1)OCCN2S(=O)(=O)c1ccccc1 | 783 s

Row | SMILES | RP-LC retention time
47 | O=C(NCCc1cccs1)C1CCCN(c2nccn3nc(-c4ccccc4Cl)cc23)C1 (stereo not given) | 947 s
48 | CC1CCCN(c2ccn3c(=O)n(CC(=O)Nc4cc(F)cc(F)c4)nc3n2)C1 (stereo not given) | 849 s
49 | CCc1ccccc1NS(=O)(=O)c1cc(-c2[nH]ncc2C(=O)N2CCCCC2)oc1C | 799 s
50 | O=[N+]([O-])c1ccccc1S(=O)(=O)Nc1cccc(-c2ccc(N3CCOCC3)nn2)c1 | 646 s
51 | COc1ccc(-c2cc3n(n2)CCCN(C(=O)c2cnccn2)C3)cc1 | 695 s
52 | Cc1cnc(C)n1C1CCN(S(=O)(=O)c2ccccc2)CC1 | 634 s
53 | COc1ccc(S(=O)(=O)N2CCC(n3cnnc3-c3ccccc3)CC2)cc1OC | 718 s
54 | Cn1ncc(N2CCCC(C(=O)N3CCc4ccccc4C3)C2)cc1=O (stereo not given) | 732 s
55 | Cc1cc(-c2c(C)sc(C)c2S(=O)(=O)Nc2ccc(F)c(Cl)c2)n[nH]1 | 1120 s
56 | Cc1cc(Cl)ccc1NC(=O)C1CCN(S(=O)(=O)c2ccc3c(c2)NC(=O)CO3)CC1 | 839 s
57 | O=C(c1ccc(Br)o1)N1CCN=C1N1CCN(c2ccccc2F)CC1 | 695 s
58 | Cc1ccsc1C(=O)Nc1cccc(OCc2nnc(-c3ccc(F)cc3)o2)c1 | 981 s
59 | CCn1c(=O)c(N2CCN(C(=O)NC3CCCCC3)CC2)nc2ccccc21 | 919 s
60 | Cc1ccc2c(c1)C(=O)NC1(CCN(C(=O)c3cccc(F)c3)CC1)N2C | 756 s
61 | COc1ccc(OCC(O)CN2CCN(c3ccc(Cl)cc3)CC2)cc1 (stereo not given) | 795 s
62 | COc1cccc(-c2cn3ccn(-c4ccccc4OC)c(=O)c3n2)c1 | 780 s
63 | CCCn1cnc2cc(-c3noc(C4CC(=O)N(c5ccccc5)C4)n3)ccc21 (stereo not given) | 711 s
64 | CSc1ccc(CNC(=O)C2CCCN(c3cnc4nc(C)c(C)nc4c3)C2)cc1 (stereo not given) | 755 s
65 | CCCN1CCN(C(=O)CN2CCN(Cc3ccccc3)C2=O)CC1 | 578 s
66 | COc1cc(OC)cc(-c2noc(Cn3cnc4c(oc5ccccc54)c3=O)n2)c1 | 944 s
67 | Cc1nn(-c2nc(-c3ccccc3)cs2)c(C)c1CC(=O)Nc1ccccc1Cl | 1220 s
68 | Cc1ccc(S(=O)(=O)N2CC(Cc3nncn3C3CCCC3)C2)cc1F | 747 s
69 | O=C(C1CCCN1)N1CCC(OCc2nc(-c3ccncc3)no2)CC1 (stereo not given) | 565 s

Row | SMILES | RP-LC retention time
70 | COCCN1C(=O)c2cccn2CC1CNC(=O)c1ccnn1C (stereo not given) | 626 s
71 | CC1CCN(C(=O)c2cc3c(s2)CCC(C(=O)NCc2ccccn2)C3)CC1 (stereo not given) | 668 s
72 | CCCn1cc(S(=O)(=O)NCc2ccc(C)c(C)c2)c2cccnc21 | 984 s
73 | COc1ccc(-c2nc(NCCCN3CCN(C)CC3)c3ccccc3n2)cc1 | 828 s
74 | CCN1CCN(CCNC(=O)CCCN2C(=O)CCn3nc(-c4cccn4C)cc32)CC1 | 575 s
75 | COc1ccc(-c2noc(Cc3nnc(-c4ccc(Cl)cc4)o3)n2)cc1OC | 966 s
76 | O=C(NCCc1csc(C2CCN(C(=O)C3CCCCC3)CC2)n1)C1CCC1 | 720 s
77 | Cc1occc1-c1nnc2sc(COc3ccc(Br)cc3)nn12 | 1040 s
78 | CCOc1ccc(CN(C(=O)Cc2coc3ccc(CC)cc23)C2CCS(=O)(=O)C2)cc1 (stereo not given) | 1050 s
79 | Cc1ccc(F)cc1NC(=O)CSc1ccc(N2CCCC(C(=O)NC3CC3)C2)nn1 (stereo not given) | 664 s
80 | C=CCN(Cc1nc(-c2cccc(C)c2)no1)C(=O)Nc1ccc(C)cc1 | 1110 s
81 | O=C1CCSc2c1cccc2C(=O)N1CCN(c2ccc(F)cc2)CC1 | 882 s
82 | O=C(Nc1cc(-c2ccsc2)no1)c1cccc(F)c1 | 951 s
83 | CCc1cc(=O)n(CC(=O)Nc2ccc3c(c2)OCO3)c(N2CCOCC2)n1 | 671 s
84 | CCOc1ccc(NC(=O)c2cc3ccccc3cc2O)cc1 | 1130 s
85 | O=C(NCC1CCN(C(=O)Oc2ccccc2)CC1)C(=O)Nc1ccc2c(c1)OCCO2 | 853 s
86 | Cc1ccc(-n2c(=O)c3c(cc(C)n3C)n(CC(=O)Nc3cccc(Br)c3)c2=O)cc1 | 883 s
87 | C=CCNC(=O)c1ccc2c(c1)N(C)C(=O)CS2 | 671 s
88 | COc1ccc(-c2noc(-c3ccc(N4CCN(C5CCCCC5)CC4)nc3)n2)cc1 | 778 s
89 | CCC(CC)NC(=O)C1(CCO)CCN(Cc2ccccc2)C1 (stereo not given) | 618 s
90 | O=C(Nc1cccc2nsnc12)C1CCN(S(=O)(=O)N2CCOCC2)CC1 | 775 s
